Measurements: PubChem BioAssay (NCI)
“And” between values parts separate entries of the source, which are not always exact repeats. Equal values may be shown once.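 Cells were grown in 96-well plates and exposed to each compound for 48 hours at five concentrations; endpoints were interpolated linearly between bracketing concentrations, or set to the highest concentration if not reached. Abbreviation: GI50, concentration required for 50% inhibition of growth. TGI denotes the concentration required for complete inhibition of growth.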

What was measured:
Test in all cases: NCI-60 cell line screen, 48 h
[1] = tested on: A549 NSCLC
[2] = tested on: HS 578T breast
[3] = tested on: M14 melanoma
[4] = tested on: NCI-H23 lung
[5] = tested on: NCI/ADR-RES ovarian
[6] = tested on: SF-539 CNS
[7] = tested on: T-47D breast
[8] = tested on: UO-31 renal
[9] = tested on: HOP-92 NSCLC
[10] = tested on: MDA-N

Question: What does the source list for O=[Se](O)O?
Answer: TGI [1]: > 100 µM; TGI [2]: > 100 µM; TGI [3]: 23.4 µM; TGI [4]: > 94.4 µM; TGI [5]: > 54.9 µM; TGI [6]: 2.56 µM; TGI [7]: > 62.9 µM; TGI [8]: 7.36 µM

Question: CCSC1=CC2(O)N(CCc3ccc(OC)c(OC)c3)C(=O)CC2(C(=O)OC)CC1=O (configuration not stated) was tested. Which TGI [1] did it give?
Answer: > 100 µM

Question: And the TGI [9]?
Answer: 29.7 µM

Question: What about the TGI [3] of the same compound?
Answer: 56.4 µM

Question: And the TGI [10]?
Answer: > 100 µM

Question: What about the TGI [4] of the same compound?
Answer: 33.2 µM

Question: What about the TGI [5] of the same compound?
Answer: > 100 µM

Question: And the TGI [6]?
Answer: 78.7 µM

Question: What about the TGI [7] of the same compound?
Answer: 48.5 µM

Question: And the TGI [8]?
Answer: 33.1 µM

Question: With O=c1[nH]c(=O)n(C2OC(CO)C(O)C2O)cc1OCCCc1ccccc1 (configuration not stated) as the compound, how does the TGI [1] read?
Answer: > 100 µM

Question: What about the TGI [2] of the same compound?
Answer: > 100 µM

Question: What about the TGI [3] of the same compound?
Answer: > 100 µM

Question: What about the TGI [10] of the same compound?
Answer: > 100 µM

Question: And the TGI [4]?
Answer: > 100 µM

Question: What about the TGI [5] of the same compound?
Answer: > 100 µM

Question: What about the TGI [6] of the same compound?
Answer: > 100 µM

Question: What about the TGI [7] of the same compound?
Answer: > 100 µM

Question: O=C(O)/C=C\C(=O)Nn1c(Cc2ccc(Cl)cc2)n[nH]c1=O was tested. Which TGI [1] did it give?
Answer: > 100 µM

Question: What about the TGI [2] of the same compound?
Answer: > 100 µM

Question: What about the TGI [3] of the same compound?
Answer: > 100 µM

Question: And the TGI [10]?
Answer: > 100 µM

Question: And the TGI [4]?
Answer: > 100 µM

Question: And the TGI [5]?
Answer: > 100 µM

Question: And the TGI [6]?
Answer: > 100 µM

Question: What about the TGI [7] of the same compound?
Answer: > 100 µM

Question: For O=C(O)c1ccccc1C1c2ccccc2Oc2ccccc21, which TGI [1] is on record?
Answer: > 100 µM

Question: And the TGI [9]?
Answer: 77.5 µM

Question: What about the TGI [3] of the same compound?
Answer: > 100 µM

Question: What about the TGI [10] of the same compound?
Answer: > 100 µM

Question: And the TGI [4]?
Answer: > 100 µM

Question: And the TGI [5]?
Answer: > 100 µM

Question: What about the TGI [7] of the same compound?
Answer: > 100 µM

Question: What about the TGI [8] of the same compound?
Answer: > 100 µM

Question: Which TGI [2] does the source give for S=C1SC(=Nc2ccccc2)C(=Nc2ccccc2)N1c1ccc2ccccc2c1 here?
Answer: > 100 µM

Question: What about the TGI [3] of the same compound?
Answer: > 100 µM

Question: And the TGI [10]?
Answer: > 100 µM

Question: What about the TGI [4] of the same compound?
Answer: > 100 µM

Question: What about the TGI [5] of the same compound?
Answer: > 100 µM

Question: What about the TGI [7] of the same compound?
Answer: > 100 µM

Question: What about the TGI [8] of the same compound?
Answer: > 100 µM

Question: Which results are given for COc1ccc(C)cc(=O)c1O?
Answer: TGI [1]: > 100 µM; TGI [9]: > 100 µM; TGI [3]: > 100 µM; TGI [4]: > 100 µM; TGI [6]: > 100 µM; TGI [8]: > 100 µM

Question: For CC1(C)C=C(/C=N/Nc2ccccc2)C(C#N)=C(O)C1(C#N)C#N, which TGI [1] is on record?
Answer: > 100 µM

Question: And the TGI [9]?
Answer: 99.6 µM

Question: What about the TGI [2] of the same compound?
Answer: > 100 µM

Question: And the TGI [3]?
Answer: > 100 µM

Question: And the TGI [10]?
Answer: > 100 µM

Question: And the TGI [4]?
Answer: > 100 µM

Question: What about the TGI [5] of the same compound?
Answer: > 100 µM

Question: And the TGI [6]?
Answer: > 100 µM

Question: What about the TGI [8] of the same compound?
Answer: > 100 µM

Question: How did the TGI [1] turn out when COc1cc2c(c(OC)c1OC)-c1ccc(SC)c(=O)cc1[C@@H](NCc1ccc([N+](=O)[O-])cc1)CC2 was run?
Answer: > 100 µM

Question: And the TGI [9]?
Answer: > 100 µM

Question: What about the TGI [6] of the same compound?
Answer: 0.00672 µM and 0.0112 µM

Question: And the TGI [8]?
Answer: > 100 µM

Question: What does the source list for O=C1C2C=CC(n3[nH]c(=O)n(Cc4ccccc4)c3=O)CC2C(=O)N1c1ccc(Br)cc1 (configuration not stated)?
Answer: TGI [1]: > 100 µM; TGI [9]: > 100 µM; TGI [3]: > 100 µM; TGI [4]: > 100 µM; TGI [6]: > 100 µM; TGI [8]: > 100 µM

Question: With N/C(=N\N=C\c1ncccc1O)NO as the compound, how does the TGI [1] read?
Answer: > 100 µM

Question: What about the TGI [9] of the same compound?
Answer: > 100 µM

Question: And the TGI [4]?
Answer: > 100 µM

Question: What about the TGI [5] of the same compound?
Answer: > 85.5 µM

Question: What about the TGI [6] of the same compound?
Answer: 59.1 µM

Question: What about the TGI [8] of the same compound?
Answer: > 86.2 µM

Question: For COc1ccccc1C1C(C#N)=C(N)Oc2n[nH]c(C)c21 (configuration not stated), which GI50 [1] is on record?
Answer: > 100 µM

Question: What about the TGI [1] of the same compound?
Answer: > 100 µM

Question: What about the GI50 [9] of the same compound?
Answer: 41.2 µM

Question: What about the TGI [9] of the same compound?
Answer: > 100 µM

Question: And the GI50 [2]?
Answer: 27.8 µM

Question: What about the TGI [2] of the same compound?
Answer: > 100 µM

Question: What about the GI50 [3] of the same compound?
Answer: > 100 µM

Question: What about the TGI [3] of the same compound?
Answer: > 100 µM

Question: What about the GI50 [4] of the same compound?
Answer: > 100 µM

Question: And the TGI [4]?
Answer: > 100 µM

Question: What about the GI50 [5] of the same compound?
Answer: > 100 µM

Question: And the TGI [5]?
Answer: > 100 µM

Question: And the GI50 [6]?
Answer: > 100 µM

Question: And the TGI [6]?
Answer: > 100 µM

Question: And the GI50 [7]?
Answer: > 100 µM

Question: And the TGI [7]?
Answer: > 100 µM

Question: And the GI50 [8]?
Answer: > 100 µM

Question: And the TGI [8]?
Answer: > 100 µM
